# Laboratory results reported in patent US20100160454A1, “ANTIMICROBIAL AGENTS, COMPOSITIONS AND PRODUCTS CONTAINING THE SAME, AND METHODS OF USING THE COMPOSITIONS AND PRODUCTS” (Eastman Chemical Company, priority 2008, published 2010).
# Experiments:
# Test in all cases: Microbiological challenge testing in BPW broth, graded subculture counts
# Assay type in all cases: cell-based
# [1] = system: Aspergillus niger Wild type; settings: A. niger
# Summary of the method: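 Wild-type A. niger, grown in TSB with 1% dextrose at 22 °C and on SABD until sporulation, was adjusted to 1.0×10^8 spores/vegetative cells (hemocytometer). It was inoculated in triplicate into BPW with 1% dextrose to give 10^5 to 10^6 CFU/mL at time zero. Counts were by spread plate on SABD, ≥48 h at 22 °C, CFU/mL = count × dilution factor.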
# [2] = system: Candida albicans Wild type; settings: C. albicans
# Summary of the method: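 Wild-type C. albicans grown in TSB with 1% dextrose at 22 °C, then adjusted by turbidity and hemocytometer to a 10^8 CFU/mL challenge confirmed on SABD plates. Challenge added to BPW broth containing 1% dextrose, giving 10^5 to 10^6 CFU/mL at time zero; controls in triplicate. Counts by serial dilution and spread-plating after at least 48 h incubation.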
# [3] = system: Burkholderia cepacia Wild type; settings: B. cepacia
# Summary of the method: (§1)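 Bacteria were grown in TSB with 1% dextrose at 35 °C ± 2 °C for at least 96 h, then added to BPW containing 1% dextrose plus test material to give 10^5 to 10^6 CFU/mL at time zero. Broth-alone controls were run in triplicate. Counts were made by spread plating on PCA.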
# [4] = system: Proteus vulgaris Wild type
# Summary of the method: as §1
# [5] = system: Staphylococcus aureus ATCC 25923; settings: S. aureus
# Summary of the method: as §1
smiles,measurement,setting,value
"CC1(C)C(O)C(C)(C)C1O (stereo not drawn) [TMCBD, 2,2,4,4-tetramethyl-1,3-cyclobutanediol]",Grade,"[1]; 0.5% (wt/vol), 3 day",5
same,Grade,"[1]; 0.5% (wt/vol), 13 day",5
same,Grade,"[1]; 0.5% (wt/vol), 30 day",5
same,Grade,"[1]; 1.25% (wt/vol), 3 day",4
same,Grade,"[1]; 1.25% (wt/vol), 13 day",4
same,Grade,"[1]; 1.25% (wt/vol), 30 day",4
same,Grade,"[1]; 2.5% (wt/vol), 3 day",3
same,Grade,"[1]; 2.5% (wt/vol), 13 day",2 (Countable (10 to 100 colonies))
same,Grade,"[1]; 2.5% (wt/vol), 30 day",3
same,Grade,"[1]; 5.0% (wt/vol), 3 day",2 (Countable (10 to 100 colonies))
same,Grade,"[1]; 5.0% (wt/vol), 13 day",0
same,Grade,"[1]; 5.0% (wt/vol), 30 day",0
same,Grade,"[2]; 0.5% (wt/vol), 3 day","4 (1000 to 10,000 colonies countable (thus 10,000 CFU/mL to 100,000 CFU/mL))"
same,Grade,"[2]; 0.5% (wt/vol), 14 day","4 (1000 to 10,000 colonies countable (thus 10,000 CFU/mL to 100,000 CFU/mL))"
same,Grade,"[2]; 0.5% (wt/vol), 30 day","4 (1000 to 10,000 colonies countable (thus 10,000 CFU/mL to 100,000 CFU/mL))"
same,Grade,"[2]; 1.25% (wt/vol), 3 day","3 (100 to 1000 colonies (thus 1000 to 10,000 CFU/mL))"
same,Grade,"[2]; 1.25% (wt/vol), 14 day","4 (1000 to 10,000 colonies countable (thus 10,000 CFU/mL to 100,000 CFU/mL))"
same,Grade,"[2]; 1.25% (wt/vol), 30 day","4 (1000 to 10,000 colonies countable (thus 10,000 CFU/mL to 100,000 CFU/mL))"
same,Grade,"[2]; 2.5% (wt/vol), 3 day","3 (100 to 1000 colonies (thus 1000 to 10,000 CFU/mL))"
same,Grade,"[2]; 2.5% (wt/vol), 14 day",2 (52 to 100 colonies counted (thus 520 to 1000 CFU/mL))
same,Grade,"[2]; 2.5% (wt/vol), 30 day",2 (52 to 100 colonies counted (thus 520 to 1000 CFU/mL))
same,Grade,"[2]; 5.0% (wt/vol), 3 day",2 (52 to 100 colonies counted (thus 520 to 1000 CFU/mL))
same,Grade,"[2]; 5.0% (wt/vol), 14 day",0
same,Grade,"[2]; 5.0% (wt/vol), 30 day",0
same,Grade,"[3]; 0.5% (wt/vol), 3 day","4 (1000 to 10,000 colonies countable (thus 10,000 CFU/mL to 100,000 CFU/mL))"
same,Grade,"[3]; 0.5% (wt/vol), 14 day","4 (1000 to 10,000 colonies countable (thus 10,000 CFU/mL to 100,000 CFU/mL))"
same,Grade,"[3]; 0.5% (wt/vol), 30 day","4 (1000 to 10,000 colonies countable (thus 10,000 CFU/mL to 100,000 CFU/mL))"
same,Grade,"[3]; 1.25% (wt/vol), 3 day","3 (100 to 1000 colonies (thus 1000 to 10,000 CFU/mL))"
same,Grade,"[3]; 1.25% (wt/vol), 14 day",2 (52 to 100 colonies counted (thus 520 to 1000 CFU/mL))
same,Grade,"[3]; 1.25% (wt/vol), 30 day","4 (1000 to 10,000 colonies countable (thus 10,000 CFU/mL to 100,000 CFU/mL))"
same,Grade,"[3]; 2.5% (wt/vol), 3 day",1 (0 to 51 colonies counted (thus 10 to 510 CFU/mL based on 0.1-mL sample))
same,Grade,"[3]; 2.5% (wt/vol), 14 day",0
same,Grade,"[3]; 2.5% (wt/vol), 30 day",0
same,Grade,"[3]; 5.0% (wt/vol), 3 day",1 (0 to 51 colonies counted (thus 10 to 510 CFU/mL based on 0.1-mL sample))
same,Grade,"[3]; 5.0% (wt/vol), 14 day",0
same,Grade,"[3]; 5.0% (wt/vol), 30 day",0
same,"P. vulgaris growth grade, 3 day",[4]; 0.5% weight/volume,"4 (1000 to 10,000 colonies countable (thus 10,000 CFU/mL to 100,000 CFU/mL))"
same,"P. vulgaris growth grade, 13 day",[4]; 0.5% weight/volume,"4 (1000 to 10,000 colonies countable (thus 10,000 CFU/mL to 100,000 CFU/mL))"
same,"P. vulgaris growth grade, 30 day",[4]; 0.5% weight/volume,"4 (1000 to 10,000 colonies countable (thus 10,000 CFU/mL to 100,000 CFU/mL))"
same,"P. vulgaris growth grade, 3 day",[4]; 1.25% weight/volume,"3 (100 to 1000 colonies (thus 1000 to 10,000 CFU/mL))"
same,"P. vulgaris growth grade, 13 day",[4]; 1.25% weight/volume,2 (52 to 100 colonies counted (thus 520 to 1000 CFU/mL))
same,"P. vulgaris growth grade, 30 day",[4]; 1.25% weight/volume,0
same,"P. vulgaris growth grade, 3 day",[4]; 2.5% weight/volume,"4 (1000 to 10,000 colonies countable (thus 10,000 CFU/mL to 100,000 CFU/mL))"
same,"P. vulgaris growth grade, 13 day",[4]; 2.5% weight/volume,1 (0 to 51 colonies counted (thus 10 to 510 CFU/mL based on 0.1-mL sample))
same,"P. vulgaris growth grade, 30 day",[4]; 2.5% weight/volume,0
same,"P. vulgaris growth grade, 3 day",[4]; 5.0% weight/volume,0
same,"P. vulgaris growth grade, 13 day",[4]; 5.0% weight/volume,0
same,"P. vulgaris growth grade, 30 day",[4]; 5.0% weight/volume,0
same,Grade,"[5]; 0.5% (wt/vol), 3 day","4 (1000 to 10,000 colonies countable (thus 10,000 CFU/mL to 100,000 CFU/mL))"
same,Grade,"[5]; 0.5% (wt/vol), 14 day","4 (1000 to 10,000 colonies countable (thus 10,000 CFU/mL to 100,000 CFU/mL))"
same,Grade,"[5]; 0.5% (wt/vol), 30 day","4 (1000 to 10,000 colonies countable (thus 10,000 CFU/mL to 100,000 CFU/mL))"
same,Grade,"[5]; 1.25% (wt/vol), 3 day","4 (1000 to 10,000 colonies countable (thus 10,000 CFU/mL to 100,000 CFU/mL))"
same,Grade,"[5]; 1.25% (wt/vol), 14 day","4 (1000 to 10,000 colonies countable (thus 10,000 CFU/mL to 100,000 CFU/mL))"
same,Grade,"[5]; 1.25% (wt/vol), 30 day","4 (1000 to 10,000 colonies countable (thus 10,000 CFU/mL to 100,000 CFU/mL))"
same,Grade,"[5]; 2.5% (wt/vol), 3 day",2 (52 to 100 colonies counted (thus 520 to 1000 CFU/mL))
same,Grade,"[5]; 2.5% (wt/vol), 14 day",1 (0 to 51 colonies counted (thus 10 to 510 CFU/mL based on 0.1-mL sample))
same,Grade,"[5]; 2.5% (wt/vol), 30 day",1 (0 to 51 colonies counted (thus 10 to 510 CFU/mL based on 0.1-mL sample))
same,Grade,"[5]; 5.0% (wt/vol), 3 day",0
same,Grade,"[5]; 5.0% (wt/vol), 14 day",0
same,Grade,"[5]; 5.0% (wt/vol), 30 day",0
